The series in a line: Single oral dose pharmacokinetics of curcumin in plasma and mesenteric lymph. Type of series: in vivo, Sprague-Dawley rats. The note with it: Sprague-Dawley, rat, plasma, 75 mg/kg. How it is done:
Prior to treatment, the rats were anaesthetized followed by a surgical intervention to cannulate the mesenteric mesenteric lymph duct (for lymph collection) and the carotid artery (for blood collection). The cannulas were externalized and the rats were allowed to recover for 24 hours. Thereafter, either the curcumin suspension or the SLCP dosage form was administered via gavage. Blood (0.25 ml) was sampled prior to and 0.5, 1.0, 2.0, 3.0 and 5.0 hours after administration into vials coated with EDTA. Blood samples were centrifuged to obtain plasma and stored at <−30° C. until analysis. Mesenteric lymph (0.25 ml) was collected prior to and 1 and 5 hours after administration into vials coated with EDTA and stored at <−30° C. until analysis.
Analysis of curcumin and glucuronated curcumin was performed by HPLC with UV-detection coupled to MS according to published methods. […] The Limit of Determination was set to 2.5 ng/ml biological fluid.

Each structure is given as a SMILES string.

As for `COc1cc(/C=C/C(=O)CC(=O)/C=C/c2ccc(O)c(OC)c2)ccc1O` [Standard, Curcumin], the AUC(0-t) was 562 ng·h/mL and the Cmax is 190 ng/mL.

A word on the AUC(0-t): it is the area under the concentration-time curve up to a stated or last time point. A higher AUC(0-t) goes with high exposure. The term Cmax denotes the maximum level reached in the sampled fluid or tissue.
